These results are taken from ChEMBL document CHEMBL3259719, “Discovery and Optimization of Tetramethylpiperidinyl Benzamides as Inhibitors of EZH2” (ACS Med Chem Lett, 2014).

In series [1] the target is T1, Histone-lysine N-methyltransferase EZH2 (Homo sapiens, UniProt Q15910). As to the kind of experiment: Inhibition of wild type EZH2 (unknown origin).
Target sequence in this assay (Q15910 whole entry): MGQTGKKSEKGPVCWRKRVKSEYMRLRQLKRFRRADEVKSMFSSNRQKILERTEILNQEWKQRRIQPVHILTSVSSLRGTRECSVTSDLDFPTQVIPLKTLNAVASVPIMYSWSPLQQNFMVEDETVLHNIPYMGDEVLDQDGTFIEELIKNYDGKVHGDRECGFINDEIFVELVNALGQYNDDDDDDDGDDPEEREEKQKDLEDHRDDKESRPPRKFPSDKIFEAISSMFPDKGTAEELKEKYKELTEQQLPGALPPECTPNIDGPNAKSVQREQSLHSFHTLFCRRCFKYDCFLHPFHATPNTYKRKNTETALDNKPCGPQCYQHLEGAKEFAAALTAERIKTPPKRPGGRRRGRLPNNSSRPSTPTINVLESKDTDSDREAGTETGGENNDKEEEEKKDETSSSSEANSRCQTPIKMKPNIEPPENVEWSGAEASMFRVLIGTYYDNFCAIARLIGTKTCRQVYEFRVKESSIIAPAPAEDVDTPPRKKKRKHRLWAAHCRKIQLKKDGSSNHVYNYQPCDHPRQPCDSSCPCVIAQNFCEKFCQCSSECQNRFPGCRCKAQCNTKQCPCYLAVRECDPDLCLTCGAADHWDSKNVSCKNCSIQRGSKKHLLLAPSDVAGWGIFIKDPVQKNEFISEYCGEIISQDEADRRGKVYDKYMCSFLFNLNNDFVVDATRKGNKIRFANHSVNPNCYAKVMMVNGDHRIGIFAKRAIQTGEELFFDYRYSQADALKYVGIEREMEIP
Series [2] addresses Histone-lysine N-methyltransferase EZH2 (Homo sapiens, UniProt Q15910, Y641N). As to the kind of experiment: Inhibition of EZH2 Y641N mutant (unknown origin).
Series [3] can be described thus: Passive permeability from apical to basolateral side in human Caco2 cells. It counts as ADME, cell-based. The conditions noted are these: Caco-2, read-out: permeability. (Passage across Caco-2 layers is used to estimate intestinal permeability.)
Series [4] can be described thus: Passive permeability from basolateral to apical side in human Caco2 cells. Type of series: ADME, cell-based. The conditions noted are these: Caco-2, read-out: permeability.
A short description of series [5]: Efflux ratio of passive permeability in human Caco2 cells. It counts as ADME, cell-based. The conditions noted are these: Caco-2.
Series [6] concerns the target T1, Histone-lysine N-methyltransferase EZH2. As to the kind of experiment: Inhibition of EZH2 in human HeLa cells assessed as reduction in H3K27me3 level. Type of series: cell-based.
Target sequence in this assay (Q15910 whole entry, looked up): as the sequence (Q15910 whole entry) above
Series [7] can be described thus: Growth inhibition of human KARPAS422 cells after 4 days by Cell-Titer luminescence assay. Type of series: functional. The conditions noted are these: KARPAS-422, 96 h.
The nature of series [8]: Growth inhibition of human KARPAS422 cells after 7 days by Cell-Titer luminescence assay. Type of series: functional. The conditions noted are these: KARPAS-422, 168 h.
The nature of series [9]: Growth inhibition of human KARPAS422 cells after 10 days by Cell-Titer luminescence assay. The conditions noted are these: KARPAS-422, 240 h. Type of series: functional.
A short description of series [10]: Growth inhibition of human KARPAS422 cells after 14 days by Cell-Titer luminescence assay. Type of series: functional. As to conditions: KARPAS-422, 336 h.
Series [11] can be described thus: Growth inhibition of human KARPAS422 cells after 17 days by Cell-Titer luminescence assay. The conditions noted are these: KARPAS-422, 408 h. Type of series: functional.

SMILES strings stand for the structures.

Histone-lysine N-methyltransferase EZH2 (Homo sapiens, UniProt Q15910, Y641N), sequence (Q15910 whole entry Y641N): as the sequence (Q15910 whole entry) above, with Y641N counted along it

Regarding `CC1(C)CC(NC(=O)c2ccc([S+]([O-])c3ccccc3)cc2)CC(C)(C)N1` (stereo unspecified), in series [1], the IC50 (as a rule, the concentration at which inhibition is half-maximal) was more than 80 µM.
In the case of `CC1(C)CC(NC(=O)c2ccc(OCc3ccccc3)cc2)CC(C)(C)N1`, the IC50 in series [1] was more than 80 µM.
On the same count and under the same terms, the result for `CC1(C)CC(NC(=O)c2ccc(Oc3ccccc3C#N)c(Cl)c2)CC(C)(C)N1` reads 0.45 µM.
With `CC1(C)CC(NC(=O)c2ccc(Oc3cccc(-c4cn[nH]c4)c3C#N)c(Cl)c2)CC(C)(C)N1`, the IC50 in [1] was determined as 0.23 µM; in [2], 4000 nM.
For the molecule `Cc1cc(C(=O)NC2CC(C)(C)NC(C)(C)C2)ccc1Oc1ccccc1C#N`, in series [1], half-maximal inhibition (IC50) was put at 0.92 µM.
On to `CC1(C)CC(NC(=O)c2ccc(Oc3cccc(-c4ccncn4)c3C#N)c(Cl)c2)CC(C)(C)N1`, for which the IC50 was 0.024 µM in series [1] and 130 nM in series [2].
In the case of `CC1(C)CC(NC(=O)c2ccc(Oc3cccc(-c4ccnnc4)c3C#N)c(Cl)c2)CC(C)(C)O1`, the IC50 in series [1] came out at 1.5 µM; in series [2] it was 66000 nM. Moreover, the Papp A→B in [3] is 21.9 ×10⁻⁶ cm/s. In [4], the Papp B→A turned out to be 24.8 ×10⁻⁶ cm/s. Further, the efflux ratio (commonly the permeability from basolateral to apical divided by that in the opposite direction, in the common usage) in series [5] was found to be 1.1.
In the case of `CC1(C)CC(NC(=O)c2ccc(Oc3ccccc3C#N)c(Cl)c2)C(F)(F)C(C)(C)N1` (stereo unspecified), the IC50 in series [1] is more than 80 µM; in [2], more than 80000 nM.
Take `CC1CC(NC(=O)c2ccc(Oc3cccc(-c4ccnnc4)c3C#N)c(Cl)c2)CC(C)N1` (stereo unspecified): the IC50 in series [1] was found to be 2.1 µM; in series [2], 10000 nM.
In turn, `CC1(C)CC(NC(=O)c2ccc(C(=O)c3ccccc3)cc2)CC(C)(C)N1` had an IC50 in series [1] of 57 µM.
Still for that read-out and setting: the result for `CC1(C)CC(NC(=O)c2ccc(Oc3ccccc3C#N)c(C3CC3)c2)CC(C)(C)N1` reads 0.5 µM; that for `CC1(C)CC(NC(=O)c2ccc(Oc3ccccc3C#N)c(F)c2)CC(C)(C)N1`, 1 µM.
In series [1], `CC1(C)CC(NC(=O)c2ccc(Oc3ccccc3C#N)cc2F)CC(C)(C)N1` came in with an IC50 of 15 µM.
`Cc1ccc(Oc2ccc(C(=O)NC3CC(C)(C)NC(C)(C)C3)cc2)cc1` showed an IC50 in [1] of more than 80 µM.
On to `CC1(C)CC(NC(=O)c2ccc(Oc3cccc(-c4ccncc4)c3C#N)c(Cl)c2)CC(C)(C)N1`, for which the IC50 in [1] came to 0.081 µM; in series [2], 560 nM.
In series [1], `COc1cc(Oc2ccccc2C#N)ccc1C(=O)NC1CC(C)(C)NC(C)(C)C1` yielded an IC50 of more than 80 µM.
As to `Cc1cccc(Oc2ccc(C(=O)NC3CC(C)(C)NC(C)(C)C3)cc2Cl)c1C#N`, the IC50 amounted to 0.14 µM in series [1] and 1400 nM in series [2].
Molecule `CC1(C)CC(NC(=O)c2ccc(Oc3ccccc3)cc2)CC(C)(C)N1` had an IC50 in series [1] of 51 µM.
`CC1(C)CC(NC(=O)c2ccc(Nc3ccccc3)cc2)CC(C)(C)N1` registered an IC50 in series [1] of more than 80 µM.
In series [1], `Cc1cccc(Oc2ccc(C(=O)NC3CC(C)(C)NC(C)(C)C3)cc2)c1` gave an IC50 of 61 µM. In other words, the double-digit micromolar range.
Still for that read-out and setting: the result for `CC1(C)CC(NC(=O)c2ccc(Oc3ccccc3C#N)c(Br)c2)CC(C)(C)N1` reads 0.32 µM; that for `C#Cc1ccccc1Oc1ccc(C(=O)NC2CC(C)(C)NC(C)(C)C2)cc1`, 19 µM.
For the molecule `CC1(C)CC(NC(=O)c2ccc(Oc3ccccc3C#N)cc2)CC(C)(C)N1`, the IC50 in [1] amounted to 3.4 µM. Compared with the last molecule, the IC50 is about 5.6-fold lower.
As for `CC1(C)CC(OC(=O)c2ccc(Oc3cccc(-c4ccnnc4)c3C#N)c(Cl)c2)CC(C)(C)N1`, the IC50 worked out at 0.172 µM in series [1] and 2500 nM in series [2]. For the same molecule, the Papp A→B in series [3] turned out to be 20.4 ×10⁻⁶ cm/s. Also, the Papp B→A in series [4] is 47.7 ×10⁻⁶ cm/s. Moreover, the efflux ratio in series [5] turned out to be 2.3.
In the case of `CC1(C)CC(NC(=O)c2ccc(Oc3cccc(-c4ccnnc4)c3C#N)c(Cl)c2)CC(C)(C)N1`, the Papp A→B in series [3] stood at 0.19 ×10⁻⁶ cm/s. Also, the Papp B→A in series [4] is 3.29 ×10⁻⁶ cm/s. Also, in series [6], the Activity came out at 7 µM. Besides, the GI50 (usually the concentration giving 50% growth inhibition) in series [7] was 70 µM; in series [8], 24.8 µM; in series [9] it was 23 µM; in series [10], 13.2 µM; in series [11], 9.1 µM.
`CC1(C)CC(NC(=O)c2ccc(Oc3ccccc3C#N)c(Cl)c2)CC(C)(C)N1CCO`: the IC50 in series [1] came out at 4.9 µM; in series [2], 62000 nM.
As to `CC1(C)CC(NC(=O)c2ccc(Cc3ccccc3)cc2)CC(C)(C)N1`, the IC50 in series [1] is more than 80 µM.
On the same count and under the same terms, next, `CC1(C)CC(NC(=O)c2ccc(Oc3ccccc3C#N)cc2Cl)CC(C)(C)N1`: 37 µM.
With `CC1(C)CC(NC(=O)c2ccc(Oc3cccc(Cl)c3C#N)c(Cl)c2)CC(C)(C)N1`, the IC50 was 0.14 µM in [1] and 2200 nM in series [2].
As to `CC1(C)CC(NC(=O)c2ccc(Sc3ccccc3)cc2)CC(C)(C)N1`, the IC50 in [1] came to 33 µM.
In series [1], `Cc1cc(C(=O)NC2CC(C)(C)NC(C)(C)C2)cc(C)c1Oc1ccccc1C#N` displayed an IC50 of 51 µM.
In series [1], `CC1(C)CC(NC(=O)c2ccc(Oc3ccccc3C#N)c3ccccc23)CC(C)(C)N1` returned an IC50 of 0.84 µM. Against the preceding molecule, the IC50 is about 61-fold lower.
The molecule `CC1(C)CC(NC(=O)c2ccc(COc3ccccc3)cc2)CC(C)(C)N1` had an IC50 in [1] of 48 µM. This IC50 lies about 57-fold higher than the previous one.
Same read-out and setting: the result for `CC1(C)CC(NC(=O)c2ccc(C(O)c3ccccc3)cc2)CC(C)(C)N1` (stereo unspecified) reads more than 80 µM; that for `CC1(C)CC(NC(=O)c2ccc(S(=O)(=O)c3ccccc3)cc2)CC(C)(C)N1`, more than 80 µM; that for `CC1(C)CC(NC(=O)c2ccc(Oc3ccccc3Cl)cc2)CC(C)(C)N1`, 29 µM.
As for `CC(c1ccccc1)c1ccc(C(=O)NC2CC(C)(C)NC(C)(C)C2)cc1` (stereo unspecified), the IC50 in series [1] was more than 80 µM.
Take `CC1CC(NC(=O)c2ccc(Oc3cccc(-c4ccnnc4)c3C#N)c(Cl)c2)CC(C)(C)N1` (stereo unspecified): the IC50 in [1] was determined as 0.871 µM; in series [2], 10000 nM.
As for `CC1(C)CC(NC(=O)c2ccc(Oc3ccccc3C(C)(C)C)cc2)CC(C)(C)N1`, in [1], 7.9 µM corresponded to half-maximal inhibition (IC50).
In turn, `CC1(C)CC(NC(=O)c2ccc(C3(c4ccccc4)CC3)cc2)CC(C)(C)N1` displayed an IC50 in series [1] of more than 80 µM.
The molecule `Cc1ccccc1Oc1ccc(C(=O)NC2CC(C)(C)NC(C)(C)C2)cc1` had an IC50 in series [1] of 48 µM.
In the case of `CC1(C)CC(NC(=O)c2ccc(Oc3ccccc3OCc3ccccc3)cc2)CC(C)(C)N1`, the IC50 in series [1] amounted to 3.6 µM.
On the same count and under the same terms, the result for `CC1(C)CC(NC(=O)c2cc(F)c(Oc3ccccc3C#N)c(Br)c2)CC(C)(C)N1` reads 1 µM.
The molecule `COc1ccccc1Oc1ccc(C(=O)NC2CC(C)(C)NC(C)(C)C2)cc1` showed a 50% inhibitory concentration (IC50) in series [1] of 59 µM.
As for `CC1(C)CC(COc2ccc(Oc3cccc(-c4ccncn4)c3C#N)c(Cl)c2)CC(C)(C)N1`, the IC50 in series [1] was determined as 0.189 µM; in [2], 2000 nM. For the same molecule, the Papp A→B in [3] came out at 0.5 ×10⁻⁶ cm/s. In addition, in [4], the Papp B→A was found to be 2.1 ×10⁻⁶ cm/s. Also, the efflux ratio in [5] turned out to be 4.4. Further, in [6], the Activity is more than 15 µM.
As for `CN(c1ccccc1)c1ccc(C(=O)NC2CC(C)(C)NC(C)(C)C2)cc1`, in series [1], the IC50 was more than 80 µM.
`CC1(C)CC(NC(=O)c2ccc(Oc3ccccc3C#N)c(C#N)c2)CC(C)(C)N1` came in with an IC50 in [1] of 0.93 µM.
